SMILES strings stand for the structures.

Chain of GHS-R (Q92847 whole entry, species assumed): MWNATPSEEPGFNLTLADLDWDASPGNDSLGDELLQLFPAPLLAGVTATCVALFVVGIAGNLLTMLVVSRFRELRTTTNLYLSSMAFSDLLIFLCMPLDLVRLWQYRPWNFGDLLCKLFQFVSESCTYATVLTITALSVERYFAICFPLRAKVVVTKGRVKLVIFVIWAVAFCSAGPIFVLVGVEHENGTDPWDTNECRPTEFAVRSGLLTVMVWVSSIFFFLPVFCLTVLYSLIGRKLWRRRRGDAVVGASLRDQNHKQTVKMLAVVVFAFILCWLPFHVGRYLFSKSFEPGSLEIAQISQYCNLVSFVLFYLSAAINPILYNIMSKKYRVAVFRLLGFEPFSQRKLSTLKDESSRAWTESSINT

The assay has as its target GHS-R (Homo sapiens, UniProt Q92847). The experiment in a line: GHS-R antagonist activity (Ki) in a cell based assay. The procedure:
Cell-Based Activity Assays. For example, the ability of the compound to modulate accumulation of a second messenger signaling component downstream of GHS-R can be evaluated. For example, inositol phosphates (IP), as a result of Gq signaling in a mammalian cell, e.g., a Cos-7 cells. Other tissue culture cells, Xenopus oocytes, and primary cells can also be used.
Phosphatidylinositol turnover assay. One day after transfection COS-7 cells are incubated for 24 hours with 5 μCi of [^3H]-myo-inositol in 1 ml medium supplemented with 10% fetal calf serum, 2 mM glutamine and 0.01 mg/ml gentamicin per well. Cells are then washed twice in buffer, 20 mM HEPES, pH 7.4, supplemented with 140 mM NaCl, 5 mM KCl, 1 mM MgSO4, 1 mM CaCl2, 10 mM glucose, 0.05% (w/v) bovine serum; and incubated in 0.5 ml buffer supplemented with 10 mM LiCl at 37° C. for 30 min. For some assays, it is also useful to incubate the cells with adenosine deaminase ADA (200 U/mg, Boehringer Mannheim, Germany) for 30 min in a concentration of 1 U/ml.
After incubation with the compound of interest for 45 min at 37° C., cells are extracted with 10% ice-cold perchloric acid and placed on ice for 30 min. The resulting supernatants are neutralized with KOH in HEPES buffer, and [^3H]-inositol phosphate is purified on Bio-Rad AG 1-X8 anion exchange resin as described. Assays can be run in duplicate, triplicate, etc. […]
Compound `CCN(CC)CCCS(=O)(=O)N[C@H](CCc1ccccc1)c1nc(-c2ccc(C#N)cc2)n[nH]1` [Compound 40, 3-Diethylamino-propane-1-sulfonic acid {(R)-1-[5-(4-cyano-phenyl)-2H-[1,2,4]triazol-3-yl]-3-phenyl-propyl}-amide] returned a Ki of under 100 nM.
Compound `CCN(CC)CCCS(=O)(=O)N[C@H](CCc1ccccc1)c1nc(Cc2ccccc2F)no1` [Compound 72, 3-Diethylamino-propane-1-sulfonic acid {(R)-1-[3-(2-fluoro-benzyl)-[1,2,4]oxadiazol-5-yl]-3-phenyl-propyl}-amide] showed a Ki of under 100 nM.
With `CCN(CC)CCCS(=O)(=O)N[C@H](CCc1ccccc1)c1nc(-c2c[nH]c3ccccc23)n[nH]1` [Compound 38, 3-Diethylamino-propane-1-sulfonic acid {(R)-1-[5-(1H-indol-3-yl)-2H-[1,2,4]triazol-3-yl]-3-phenyl-propyl}-amide] the figure was under 100 nM.
As for `CCN(CC)CCCS(=O)(=O)N[C@H](C)c1nc(-c2ccc(OC)cc2)no1` [Compound 152, (R)-3-Diethylamino-propane-1-sulfonic acid {1-[3-(4-methoxy-phenyl)-[1,2,4]oxadiazol-5-yl]-ethyl}-amide], the Ki is 100 to 500 nM.
In the case of `CCN(CC)CCCS(=O)(=O)N[C@H](CCc1ccccc1)c1nc(-c2ccccc2Cl)no1` [Compound 48, 3-Diethylamino-propane-1-sulfonic acid {(R)-1-[3-(2-chloro-phenyl)-[1,2,4]oxadiazol-5-yl]-3-phenyl-propyl}-amide] it was 100 to 500 nM; in that of `CCN(CC)CCCS(=O)(=O)N[C@H](CCc1ccccc1)c1nc(CCc2ccc(Br)cc2)no1` [Compound 113, 3-Diethylamino-propane-1-sulfonic acid ((R)-1-{3-[2-(4-bromo-phenyl)-ethyl]-[1,2,4]oxadiazol-5-yl}-3-phenyl-propyl)-amide], under 100 nM.
The compound `CCN(CC)CCS(=O)(=O)N[C@H](CCc1ccccc1)c1nc(-c2c(Cl)cccc2Cl)no1` [Compound 18, 2-Diethylamino-ethanesulfonic acid {(R)-1-[3-(2,6-dichloro-phenyl)-[1,2,4]oxadiazol-5-yl]-3-phenyl-propyl}-amide] displayed a Ki of 100 to 500 nM.
With `CCN(CC)CCCS(=O)(=O)N[C@H](CCc1ccccc1)c1nc(-c2ccc3ncsc3c2)n[nH]1` [Compound 44, 3-Diethylamino-propane-1-sulfonic acid [(R)-1-(5-benzothiazol-6-yl-2H-[1,2,4]triazol-3-yl)-3-phenyl-propyl]-amide], the Ki is under 100 nM.
With `CCN(CC)CCCS(=O)(=O)N[C@H](CCc1ccccc1)c1nc(Cc2ccccn2)no1` [Compound 112, 3-Diethylamino-propane-1-sulfonic acid [(R)-3-phenyl-1-(3-pyridin-2-ylmethyl-[1,2,4]oxadiazol-5-yl)-propyl]-amide], the Ki is 100 to 500 nM.
Consider `CCN(CC)CCCS(=O)(=O)N[C@H](CCc1ccccc1)c1nc(-c2ccc(OC)c(C#N)c2)n[nH]1` [Compound 125, 3-Diethylamino-propane-1-sulfonic acid {(R)-1-[5-(3-cyano-4-methoxy-phenyl)-2H-[1,2,4]triazol-3-yl]-3-phenyl-propyl}-amide], for which the Ki is under 100 nM.
Compound `CCN(CC)CCS(=O)(=O)N[C@H](CCc1ccccc1)c1nc(-c2cccnc2)no1` [Compound 43, 2-Diethylamino-ethanesulfonic acid [(R)-3-phenyl-1-(3-pyridin-3-yl-[1,2,4]oxadiazol-5-yl)-propyl]-amide] displayed a Ki of 100 to 500 nM.
On to `CCN(CC)CCCS(=O)(=O)N[C@H](CCc1ccccc1)c1nc(-c2ccc(C)cc2)no1` [Compound 71, 3-Diethylamino-propane-1-sulfonic acid [(R)-3-phenyl-1-(3-p-tolyl-[1,2,4]oxadiazol-5-yl)-propyl]-amide], for which the inhibition constant Ki was under 100 nM.
Regarding `CCN(CC)CCCS(=O)(=O)N[C@H](CCc1ccccc1)c1nc(-c2ccc(Br)cc2C)no1` [Compound 67, 3-Diethylamino-propane-1-sulfonic acid {(R)-1-[3-(4-bromo-2-methyl-phenyl)-[1,2,4]oxadiazol-5-yl]-3-phenyl-propyl}-amide], the Ki fell in the range of 100 to 500 nM.
In turn, `CCN(CC)CCS(=O)(=O)N[C@H](CCc1ccccc1)c1nc(-c2ncccc2C)no1` [Compound 14, 2-Diethylamino-ethanesulfonic acid {(R)-1-[3-(3-methyl-pyridin-2-yl)-[1,2,4]oxadiazol-5-yl]-3-phenyl-propyl}-amide] showed a Ki of 100 to 500 nM.
Turning to `CCN(CC)CCS(=O)(=O)N[C@H](CCc1ccccc1)c1nc(-c2ccccc2)n[nH]1` [Compound 28, 2-Diethylamino-ethanesulfonic acid [(R)-3-phenyl-1-(5-phenyl-2H-[1,2,4]triazol-3-yl)-propyl]-amide], the Ki was under 100 nM.
`CCN(CC)CCS(=O)(=O)N[C@H](CCc1ccccc1)c1nc(-c2ccc(Br)cc2)no1` [Compound 79, 2-Diethylamino-ethanesulfonic acid {(R)-1-[3-(4-bromo-phenyl)-[1,2,4]oxadiazol-5-yl]-3-phenyl-propyl}-amide] gave a Ki of 100 to 500 nM.
With `CCN(CC)CCS(=O)(=O)N[C@H](CCc1ccccc1)c1nc(-c2c(C)cccc2C)no1` [Compound 36, 2-Diethylamino-ethanesulfonic acid {(R)-1-[3-(2,6-dimethyl-phenyl)-[1,2,4]oxadiazol-5-yl]-3-phenyl-propyl}-amide] the figure was at least 1000 nM; with `CCN(CC)CCCS(=O)(=O)N[C@H](CCc1ccccc1)c1nc(-c2cccc(O)c2)n[nH]1` [Compound 121, 3-Diethylamino-propane-1-sulfonic acid {(R)-1-[5-(3-hydroxy-phenyl)-2H-[1,2,4]triazol-3-yl]-3-phenyl-propyl}-amide], under 100 nM; with `CCN(CC)CCS(=O)(=O)N[C@H](CCc1ccccc1)c1nc(-c2ccccc2OC)no1` [Compound 19, 2-Diethylamino-ethanesulfonic acid {(R)-1-[3-(2-methoxy-phenyl)-[1,2,4]oxadiazol-5-yl]-3-phenyl-propyl}-amide], at least 1000 nM.
`CCN(CC)CCCS(=O)(=O)N[C@H](CCc1ccccc1)c1nc(-c2cn(C)cn2)n[nH]1` [Compound 131, 3-Diethylamino-propane-1-sulfonic acid {(R)-1-[5-(1-methyl-1H-imidazol-4-yl)-2H-[1,2,4]triazol-3-yl]-3-phenyl-propyl}-amide]: the Ki was under 100 nM.
In the case of `CCN(CC)CCCS(=O)(=O)N[C@H](CCc1ccccc1)c1nc(-c2ccc(Br)cc2)no1` [Compound 59, 3-Diethylamino-propane-1-sulfonic acid {(R)-1-[3-(4-bromo-phenyl)-[1,2,4]oxadiazol-5-yl]-3-phenyl-propyl}-amide], the inhibition constant Ki is under 100 nM.
Take `CCN(CC)CCCS(=O)(=O)N[C@H](CCc1ccccc1)c1nc(-c2cccc3[nH]ccc23)n[nH]1` [Compound 118, 3-Diethylamino-propane-1-sulfonic acid {(R)-1-[5-(1H-indol-4-yl)-2H-[1,2,4]triazol-3-yl]-3-phenyl-propyl}-amide]: the Ki is under 100 nM.
In the case of `CCN(CC)CCCS(=O)(=O)N[C@H](CCC(N)=O)c1nc(Cc2ccc(Br)cc2)no1` [Compound 98, (R)-4-[3-(4-Bromo-benzyl)-[1,2,4]oxadiazol-5-yl]-4-(3-diethylamino-propane-1-sulfonylamino)-butyramide], the Ki lay within 100 to 500 nM.
With `CCN(CC)CCCS(=O)(=O)N[C@H](CCc1ccccc1)c1nc(-c2c(C)cccc2Cl)no1` [Compound 10, 3-Diethylamino-propane-1-sulfonic acid {(R)-1-[3-(2-chloro-6-methyl-phenyl)-[1,2,4]oxadiazol-5-yl]-3-phenyl-propyl}-amide] the figure was 100 to 500 nM; with `CCN(CC)CCCS(=O)(=O)N[C@H](CCc1ccccc1)c1nc(Cn2nnc3ccccc32)n[nH]1` [Compound 124, 3-Diethylamino-propane-1-sulfonic acid [(R)-1-(5-benzotriazol-1-ylmethyl-2H-[1,2,4]triazol-3-yl)-3-phenyl-propyl]-amide], under 100 nM; with `CCN(CC)CCCS(=O)(=O)N[C@H](CCc1ccccc1)c1nc(Cc2ccccc2Br)no1` [Compound 75, 3-Diethylamino-propane-1-sulfonic acid {(R)-1-[3-(2-bromo-benzyl)-[1,2,4]oxadiazol-5-yl]-3-phenyl-propyl}-amide], under 100 nM.
With `CCN(CC)CCS(=O)(=O)N[C@H](CCc1ccccc1)c1nc(Cc2c(Cl)cccc2Cl)no1` [Compound 90, 2-Diethylamino-ethanesulfonic acid {(R)-1-[3-(2,6-dichloro-benzyl)-[1,2,4]oxadiazol-5-yl]-3-phenyl-propyl}-amide] the figure was under 100 nM; with `CCN(CC)CCCS(=O)(=O)N[C@H](CCc1ccccc1)c1nc(-c2ccsc2)n[nH]1` [Compound 7, 3-Diethylamino-propane-1 sulfonic acid [(R)-3-phenyl-1-(5-thiophen-3-yl-2H-[1,2,4]triazol-3-yl)-propyl]-amide], under 100 nM; with `CCN(CC)CCCS(=O)(=O)N[C@H](CCc1ccccc1)c1nc(Cc2ccc(OC)cc2)no1` [Compound 111, 3-Diethylamino-propane-1-sulfonic acid {(R)-1-[3-(4-methoxy-benzyl)-[1,2,4]oxadiazol-5-yl]-3-phenyl-propyl}-amide], under 100 nM.

Broadly, the Ki is a measure of affinity in units of concentration, obtained from inhibition or displacement.

For the origin of these results see US7829589B2, “Sulfonamide compounds and uses thereof” (Elixir Pharmaceuticals, Inc., priority 2005, dated 2010).
